ChEMBL document CHEMBL1201862, “PubChem BioAssay data set” (2004)
Calls of active or inactive are those of the source.

Assays:
[1] = biological target: T1, Microphthalmia-associated transcription factor (Homo sapiens, UniProt O75030); assay: TRPM1 promoter luciferase signal decrease, dose response, MITF inhibitor project, cell-based, SK-MEL-5, cherry-picked, set 3 (AID 493073); format: functional
T1 sequence (O75030 whole entry): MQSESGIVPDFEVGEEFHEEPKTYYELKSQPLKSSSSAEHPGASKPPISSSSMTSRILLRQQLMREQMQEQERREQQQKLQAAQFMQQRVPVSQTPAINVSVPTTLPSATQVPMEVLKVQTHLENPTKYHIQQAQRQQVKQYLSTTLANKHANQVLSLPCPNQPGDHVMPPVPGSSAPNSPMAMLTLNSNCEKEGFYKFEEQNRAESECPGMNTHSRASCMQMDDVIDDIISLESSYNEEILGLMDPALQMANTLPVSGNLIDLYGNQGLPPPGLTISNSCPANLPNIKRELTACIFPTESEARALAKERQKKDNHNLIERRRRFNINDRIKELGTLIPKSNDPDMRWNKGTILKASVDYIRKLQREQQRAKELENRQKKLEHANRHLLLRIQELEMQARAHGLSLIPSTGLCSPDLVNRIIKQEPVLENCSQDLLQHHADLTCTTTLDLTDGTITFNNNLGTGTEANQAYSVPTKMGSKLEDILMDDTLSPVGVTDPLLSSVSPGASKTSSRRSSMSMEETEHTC

[2] = Fluorescence-based cell-based high throughput dose response assay for inhibitors of the interaction of nucleotide-binding oligomerization domain containing 2 (NOD2) and the receptor-interacting serine-threonine kinase 2 (RIPK2).; format: functional; conditions: Homo sapiens
Paired box protein Pax-8 = Paired box protein Pax-8 (Homo sapiens, UniProt Q06710); assay: inhibitors of PAX8-driven TPO luciferase reporter, dose response, RMG-I cells, cherry-pick (AID 687027); format: functional, cell-based;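 further: luciferase reporter driven by Pax8 target thyroperoxidase promoter measured by SteadyGlo luminescence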
Paired box protein Pax-8, sequence (Q06710 whole entry): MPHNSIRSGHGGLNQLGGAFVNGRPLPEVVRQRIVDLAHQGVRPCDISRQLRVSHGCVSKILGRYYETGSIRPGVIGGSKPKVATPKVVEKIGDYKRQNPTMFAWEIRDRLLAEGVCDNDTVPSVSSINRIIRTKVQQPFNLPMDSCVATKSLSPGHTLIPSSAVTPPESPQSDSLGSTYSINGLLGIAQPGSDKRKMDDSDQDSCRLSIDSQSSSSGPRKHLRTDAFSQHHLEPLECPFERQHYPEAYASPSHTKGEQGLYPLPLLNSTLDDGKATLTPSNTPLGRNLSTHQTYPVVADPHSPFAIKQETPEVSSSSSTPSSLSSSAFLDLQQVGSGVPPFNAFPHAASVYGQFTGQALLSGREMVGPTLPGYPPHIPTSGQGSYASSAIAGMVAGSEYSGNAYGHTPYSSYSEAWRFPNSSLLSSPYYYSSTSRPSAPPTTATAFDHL

[3] = inhibitors of PGC1a acetylation in cells, dose response, cell-based, cherry-picked samples (AID 720514); format: functional;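 further: potency may reflect raised or lowered acetylation signal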
[4] = biological target: NAD-dependent protein deacylase sirtuin-5, mitochondrial (Homo sapiens, UniProt Q9NXA8); assay: SIRT5 desuccinylase inhibitors, dose response, biochemical, fluorescence imaging, cherry-pick, set 5 (AID 720591);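 further: desuccinylation of succinyl peptide AMC substrate read as fluorescence after trypsin release; potency of inhibitors that lower fluorescence and may act on trypsin instead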
NAD-dependent protein deacylase sirtuin-5, mitochondrial, sequence (Q9NXA8 whole entry): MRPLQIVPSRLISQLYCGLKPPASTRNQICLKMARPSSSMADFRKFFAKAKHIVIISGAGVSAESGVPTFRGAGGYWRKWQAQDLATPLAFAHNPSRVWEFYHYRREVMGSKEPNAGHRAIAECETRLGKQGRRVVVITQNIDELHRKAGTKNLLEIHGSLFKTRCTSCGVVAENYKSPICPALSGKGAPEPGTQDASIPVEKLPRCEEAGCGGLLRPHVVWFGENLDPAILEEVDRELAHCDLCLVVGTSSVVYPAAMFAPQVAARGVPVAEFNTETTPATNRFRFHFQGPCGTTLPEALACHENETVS

[5] = Concentration-dependent survival of SW480 colon cancer line, luminescence detection with CellTiter-Glo, half-maximal inhibitory concentration (AID 1117338); format: functional
[6] = RKO cell viability reduction, dose response, CellTiter-Glo luminescence (AID 1117322); format: functional
[7] = cytotoxicity toward HCT116 cells – cell-based, CellTiter-Glo luminescence, IC50, dose response (AID 1117332); format: functional; conditions: HCT-116
[8] = SNU-C1 cell viability reduction, dose response, CellTiter-Glo luminescence (AID 1117323); format: functional, cell-based
[9] = cytotoxicity toward Colo320 cells – cell-based, CellTiter-Glo luminescence, IC50, dose response (AID 1117334); format: functional; conditions: COLO 320
[10] = cytotoxicity toward HT-29 cells – cell-based, CellTiter-Glo luminescence, IC50, dose response (AID 1117330); format: functional
[11] = CellTiter-Glo luminescent dose response of DLD-1 viability loss (AID 1117352); format: functional
[12] = biological target: COUP transcription factor 2 (Homo sapiens, UniProt P24468); assay: Luminescence-based cell-based high throughput dose response assay to identify inhibitors of COUP-TFII (NR2F2).; format: functional;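 further: HEK293 cells transiently cotransfected with COUP-TFII expression vector and reporter; luciferase reporter luminescence driven by COUP-TFII from the pX2-168 reporter plasmid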
COUP transcription factor 2, sequence (P24468 whole entry): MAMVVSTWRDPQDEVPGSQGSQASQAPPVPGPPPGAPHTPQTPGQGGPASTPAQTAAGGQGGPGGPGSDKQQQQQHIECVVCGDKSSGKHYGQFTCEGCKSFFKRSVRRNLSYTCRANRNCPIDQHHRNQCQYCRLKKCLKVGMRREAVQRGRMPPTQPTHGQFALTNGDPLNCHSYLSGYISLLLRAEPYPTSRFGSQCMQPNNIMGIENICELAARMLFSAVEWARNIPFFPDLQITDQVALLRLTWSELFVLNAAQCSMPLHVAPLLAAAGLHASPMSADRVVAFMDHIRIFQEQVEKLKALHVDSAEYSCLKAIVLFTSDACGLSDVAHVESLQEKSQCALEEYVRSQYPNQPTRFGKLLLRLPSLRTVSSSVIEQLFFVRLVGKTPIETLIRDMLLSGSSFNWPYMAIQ

[13] = A549 cell cytotoxicity, dose response, cytotoxicity control, plate reader, cherry-pick, antagonist series (AID 743412); format: functional, cell-based
[14] = HepG2 cell cytotoxicity, dose response, cytotoxicity control, plate reader, cherry-pick, antagonist series (AID 743416); format: functional, cell-based
[15] = LGR2 antagonists, dose response, cell-based, HEK293, CRE-luciferase reporter, cherry pick, set 2 (AID 743343); format: functional;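 further: transfected cells were stimulated with diluted bursicon conditioned medium after compound addition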
[16] = MC4R antagonists, dose response, counter-screen for LGR2 antagonist project, cell-based, plate reader, cherry pick (AID 743444); format: functional;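 further: transfected HEK 293 cells stimulated with alpha-MSH peptide; potency of inhibitors of the alpha-MSH evoked signal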
[17] = HEK293 cell cytotoxicity, dose response, cytotoxicity control, plate reader, cherry-picked samples (AID 743446); format: functional, cell-based
[18] = microbe, parasite or virus in culture; format: functional; conditions: Mycobacterium tuberculosis
[19] = Luminescence Cell-Based Dose Retest to Confirm Inhibitors of Cancer Stem Cells. [Related pubchem assays (depositor defined):AID2717, AID2721]; format: functional; conditions: Homo sapiens
INS1 = assay: beta cell apoptosis inhibitors, cytokine rescue, dose response, luminescence, retest (AID 449756); format: functional, cell-based; conditions: Rattus norvegicus;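 further: cell death triggered by IL-1 beta plus TNF-alpha plus IFN-gamma mixture; protective hits raise ATP signal compared with cytokine alone wells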

SMILES	AC50 (Paired box protein Pax-8)	AC50 [3]	AC50 [13]	AC50 [14]	AC50 [15]	AC50 [16]	AC50 [17]	further results
Cc1ccc(NC(=O)Cn2ncc(Cl)c(Cl)c2=O)cc1S(=O)(=O)N1CCCCC1	4.58 µM (active)	7.27 µM (active)						AC50 [1]: 13.7 µM (active); IC50 [2]: 2.88 µM (active)
COc1cc(Nc2ncc3c(n2)CCN(C(=O)Nc2ccc(C(C)C)cc2)C3)cc(OC)c1OC								AC50 [4]: 17 µM (active)
CC=CC1=C(C(=O)O)N2C(=O)[C@@H](NC(=O)[C@H](N)c3ccc(O)cc3)[C@H]2SC1								IC50 [5]: > 20 µM (inactive); IC50 [6]: > 20 µM (inactive); IC50 [7]: > 20 µM (inactive); IC50 [8]: > 20 µM (inactive); IC50 [9]: > 20 µM (inactive); IC50 [10]: > 20 µM (inactive); IC50 [11]: > 20 µM (inactive)
COc1ccc(-n2nnnc2C(c2cc3ccccc3o2)N2CCC(n3c(O)nc4ccccc43)CC2)cc1 (stereo not drawn)			38.9 µM (active)	4.45 µM (active)	13.7 µM (active)	14.3 µM (active)	8.29 µM (active)	IC50 [12]: 6.4 µM (active)
Cn1nnnc1Sc1ncnc2scc(-c3cc4ccccc4o3)c12	3.12 µM (active)	4.29 µM (active)	8.38 µM (active)	7.37 µM (active)	4.7 µM (active)	4.18 µM (active)	7.82 µM (active)	CC50 [18]: 7.67 µM (active); AC50 [19]: 1.41 µM (active); AC50 (INS1): 6 µM (active)
